Counter-ions that a name gives are not always drawn.
Test: solubility of the drug
Assay type: physicochemical

Molecule `Fc1ccc([C@@H]2CCNC[C@H]2COc2ccc3c(c2)OCO3)cc1` [Paroxetine hydrochloride] has a solubility of 5400 µg/mL.
